Molecules are shown by their SMILES. Bounds are passed on as bounds.

The record followed here is paper PMC4414177, “A novel orally active water-soluble inhibitor of human glutathione transferase exerts a potent and selective antitumor activity against human melanoma xenografts” (Oncotarget, 2015).

In assay [1] the test system is G-361 human melanoma cells. The experiment in a line: G-361 cellular xenograft model, antitumor efficacy. The format is in vivo, mice. To be noted: G-361 xenograft. On the procedure: (§1) SK23-MEL and G-361 cells were injected s.c. (in both cases, 1×10^6) into the right flank of NOD/SCID and SCID male mice, respectively. Animals were randomly divided in groups of 6 mice and treatments were started at day 10 (SK23-MEL) and 14 (G-361), when tumors were clearly palpable.
(§2) Primary tumor growth was determined for all animals by caliper measurement (minor and major axis length), three times per week, until they were sacrificed. Primary tumor volume was determined using the following equation: V (cm^3)=(α^2×β)/2 (Eq. 3)
(§3) The efficacy of the treatment was also analyzed by calculation of the percentage of Increase in Life Span (% ILS), since this analysis gives an evidence of clinical potency. Survival endpoint for each animal was fixed at the day when tumor volume reached 1.0 cm^3 (A375) or 0.4 cm^3 (SK23-MEL and G-361), and data were used to plot the relative Kaplan-Meier curves. Treatment efficacy was then evaluated by comparing the Median Survival Time (MST) of treated group with the MST of control group, and expressed as percentage of ILS: % ILS=[100×(MSTtreated group)/(MSTcontrol group)]−100 (Eq. 4)
(§4) Treatment was considered effective when % ILS > 20%.

The subject of assay [2] is SK23-MEL cells. Kind of assay: Caspase-3 activity in cell lysates. The assay is classed as cell-based, human. To be noted: 7 μM. The method, then: (§5) Apoptosis was confirmed by measuring caspase-3 activity, at 25°C, in total cell lysates, using the model fluorescent peptide substrate N-Acetyl-Asp-Glu-Val-Asp-7-amido-4-trifluoromethylcoumarin (Ac-DEVD-AFC). […] Caspase activity was expressed as change in fluorescence per min, per 10^6 cells.

In a further assay the test system is A375 cells. Kind of assay: Caspase-3 activity in cell lysates. The format is cell-based, human. To be noted: A375, 10 μM. On the procedure:
as §5

Assay [3] deals with SK23-MEL cells. Kind of assay: Tyrosinase activity. The format is cell-based, human. The following applies: 7 μM, 48 hrs, p < 0.005. On the procedure:
(§6) Cells (1×10^6) were lysed in 1M NaOH at 100°C, for 1 hour and then centrifuged at 15,000 g, for 20 minutes. […] Tyrosinase activity was examined by measuring spectrophotometrically at 475 nm the rate of L-DOPA oxidation to dopachrome over 1 hour at 37°C. Cells [1×10^6 in 40 μl of 20 mM potassium phosphate buffer (pH 6.8) containing 1% Triton X-100 and 1 mM PMSF] were disrupted by freezing and thawing and centrifuged at 15,000 g for 20 minutes at 4°C. The assay was started by addition of 100 μl of 2 mg/ml L-DOPA to 40 μl of supernatant. Tyrosinase activity was expressed as change in absorbance, per hour, per 10^6 cells.

In another assay the test system is A375 tumor xenografts. Kind of assay: Immunohistochemical analysis of A375 tumor xenografts. The assay is classed as in vivo, mice. An excerpt: (§7) At sacrifice, tumors were removed, formalin-fixed and paraffin embedded. All internal organs were fixed and paraffin embedded for the morphological study to evaluate drug effects in normal tissues. Three μm-thick sections were cut and stained with haematoxylin and eosin (H&E). Two observers blindly classified the tissues for necrotic areas, evaluated as percent of total area, mitosis number in 10 high power field randomly selected away from the ischemic necrosis.
Briefly, 3-μm-thick sections were pre-treated with EDTA citrate pH 7.8, for 30 min, at 95°C and then incubated respectively with rabbit monoclonal anti-Phospho-SAPK/JNK (1:100, 81E11, Cell Signaling, Danvers Massachusetts, USA) and rabbit polyclonal anti-Caspase3, for 60 min (1:100, PA5-16335, ThermoFisher Scientific, Walthman, MA, USA). Washing were performed with PBS 4% + Tween20, pH 7.6, by UCS diagnostic.

The target in the next assay is T1, GSTM2-2 (Homo sapiens, UniProt P28161).
T1 construct: made in house; host or cells: Escherichia coli
T1 sequence (P28161 1-218): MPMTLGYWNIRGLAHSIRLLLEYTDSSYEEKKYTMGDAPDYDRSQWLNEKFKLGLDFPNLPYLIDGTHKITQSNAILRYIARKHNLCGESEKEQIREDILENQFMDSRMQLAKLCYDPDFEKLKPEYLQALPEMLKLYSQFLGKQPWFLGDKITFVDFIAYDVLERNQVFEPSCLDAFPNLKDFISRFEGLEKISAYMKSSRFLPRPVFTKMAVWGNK
Kind of assay: Inhibition of GSTM2-2 conjugation activity. The format is biochemical. To be noted: GSTM2-2 5 nM. On the procedure: Human GSTM2-2, GSTP1-1, JNK1a2 and TRAF2 were expressed in Escherichia coli and purified as previously described; protein concentration was determined using the Lowry colorimetric assay. Unless specified otherwise, all chemicals were purchased from Sigma-Aldrich S.r.l. (Milan, Italy).
GST activity was determined spectrophotometrically at 340 nm (ε = 9,600 M^−1 cm^−1), as previously reported. Inhibition experiments were performed by measuring GSTP1-1 (20 nM) or GSTM2-2 (5 nM) activities in the presence of various amounts of the selected NBD derivative (from 0.1 to 20 μM with GSTP1-1, and from 0.005 and 1 μM with GSTM2-2). Fifty percent inhibitory concentration (IC50) values were calculated by fitting the data to Equation 1, where ν is the percentage of the saturated binding sites; [P]t is the total GST concentration and [L]t is the total inhibitor concentration, assuming a 1:1 interaction stoichiometry between the inhibitor and one GST subunit, as well as that the binding sites are equal and independent.

The subject of assay [4] is five cultured human melanoma cell lines. Kind of assay: Cell growth inhibition, SRB assay, whole panel. The format is cell-based. To be noted: range over A375, G-361, MALME-3M, IST-MEL-1, SK23-MEL. The method, then:
(§8) The IC50 values for each compound were then evaluated by the SRB assay.
(In SRB staining, fixed cells bind dye roughly in proportion to their protein.)

In assay [5] the test system is SK23-MEL cells. Kind of assay: Melanin content. The format is cell-based, human. The following applies: 7 μM, 48 hrs, p < 0.05. The method, then:
as §6

For the next assay, the system named is SK23-MEL tumors. Kind of assay: Histological analysis of SK23-MEL tumors. The following applies: SK23-MEL xenografts, MC3181-treated. The format is in vivo, mice.
Description: as §7

Assay [6] deals with SK23-MEL human melanoma cells. The experiment in a line: SK23-MEL cellular xenograft model, antitumor efficacy. The following applies: 8 mg/kg/day i.v. or oral, q1dx5 three weeks. The format is in vivo, mice. The method, then: as §1, §2, §3, §4
The next assay deals with A375. The experiment in a line: Cell growth inhibition, SRB assay. The following applies: Homo sapiens, A-375, A375, 48 h. The assay is classed as cell-based. On the procedure:
as §8

The test system of another assay is IST-MEL-1. Kind of assay: Cell growth inhibition, SRB assay. The assay is classed as cell-based. To be noted: Homo sapiens, IST-MEL-1, 48 h. On the procedure:
as §8

In the next assay the test system is SK23-MEL. Kind of assay: Cell growth inhibition, SRB assay. The assay is classed as cell-based. To be noted: Homo sapiens, 48 h. The method, then: as §8
The next assay has as its system G-361. The experiment in a line: Cell growth inhibition, SRB assay. The format is cell-based. To be noted: Homo sapiens, G-361, 48 h. The method, then:
as §8

In a further assay the test system is MALME-3M. The experiment in a line: Cell growth inhibition, SRB assay. The format is cell-based. To be noted: Homo sapiens, 48 h. On the procedure:
as §8

Broadly, the IC50 is the concentration at which inhibition is half-maximal. A high value points to lower potency. Usually ILS stands for the gain in survival time of treated over control animals, in per cent. Read a low ILS as a small benefit in survival. Take `O=[N+]([O-])c1ccc(SCCOCCOCCO)c2nonc12` [MC3181, 2-(2-(2-((7-nitrobenzo[c][1,2,5]oxadiazol-4-yl)thio)ethoxy)ethoxy)ethanol]: in [1] (8 mg/kg/day oral), the “animals still alive at the end of the observation period” value is reported as 50%. Further, the disease course result in assay [1] (8 mg/kg/day oral) is “stabilization and regression of the disease in half of the treated mice”. Also, the tumor growth result is “significant delay in tumor growth” in [1] (8 mg/kg/day, both administration routes (i.v., oral)) and “a certain degree of delay in tumor growth” in assay [6]. Further, the caspase-3 activation result in the assay on SK23-MEL cells [2] was “negligible increase of proteolitic activity”; in the assay with A375 cells, “strong caspase-3 activity”. In addition, the tyrosinase activity entry with SK23-MEL cells [3] is “significant increase”. For the same compound, in the assay on A375 tumor xenografts (A375 tumor xenografts, data not shown), the “higher apoptosis compared to untreated controls” value is recorded as “about 20%”. For the same compound, the “JNK phosphorylation and caspase-3 in tumors” value in the assay with A375 tumor xenografts (A375 xenografts, 8 mg/kg, P-JNK 6 hrs after treatment, caspase-3 at end of treatment) was “significant increase of JNK phosphorylation and caspase-3 activity”. Besides, the IC50 was 81 ± 13 nM against GSTM2-2; 800 to 2400 nM in assay [4]; 2310 ± 40 nM in the assay on A375; 920 ± 70 nM in the assay with IST-MEL-1; 1790 ± 50 nM in the assay on SK23-MEL; 780 ± 40 nM with G-361. Besides, inhibition in the assay on MALME-3M was half-maximal at 2420 ± 160 nM (IC50). Besides, in the assay on SK23-MEL cells [5], the melanin content entry is “significant increase”. For the same compound, in the assay with SK23-MEL tumors, the tumor histology result is given as “melanin production”. Further, in assay [6], the ILS is < 20%.
